Activity calls are given as the source filed them.
What was measured:
A-375 [1] = assay: proliferation inhibition in MITF-low A375 cells – cell-based, cherry-pick samples, set 2, counter-screen for MITF modulator project, dose response (AID 540335); format: functional; conditions: Homo sapiens
A-375 [2] = assay: MITF: Counter assay: A375 proliferation Measured in Cell-Based System Using Plate Reader - 2084-03_Inhibitor_Dose_DryPowder_Activity. [Related pubchem assays (depositor defined):AID488944]; format: functional; conditions: Homo sapiens
CAAX prenyl protease 2 [3] = target: T1, CAAX prenyl protease 2 (Saccharomyces cerevisiae S288c, UniProt Q03530); format: biochemical
T1 sequence (Q03530 whole entry): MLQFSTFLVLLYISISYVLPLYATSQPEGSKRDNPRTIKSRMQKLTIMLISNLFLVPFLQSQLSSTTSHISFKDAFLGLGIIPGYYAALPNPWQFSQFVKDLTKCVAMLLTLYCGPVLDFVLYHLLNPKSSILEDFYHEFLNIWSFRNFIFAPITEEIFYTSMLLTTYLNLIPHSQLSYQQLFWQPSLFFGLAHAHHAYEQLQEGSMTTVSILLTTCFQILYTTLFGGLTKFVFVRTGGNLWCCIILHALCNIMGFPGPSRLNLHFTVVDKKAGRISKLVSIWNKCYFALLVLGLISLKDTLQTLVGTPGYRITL

CAAX prenyl protease 2 [4] = target: CAAX prenyl protease 2 (Homo sapiens, UniProt Q9Y256); assay: inhibition of Ras-converting CAAX protease Rce1 – biochemical, yeast membranes, quenched-peptide fluorescence, cherry-pick, dose response (AID 588849)
Chain of CAAX prenyl protease 2 (Homo sapiens, UniProt Q9Y256) (Q9Y256 whole entry): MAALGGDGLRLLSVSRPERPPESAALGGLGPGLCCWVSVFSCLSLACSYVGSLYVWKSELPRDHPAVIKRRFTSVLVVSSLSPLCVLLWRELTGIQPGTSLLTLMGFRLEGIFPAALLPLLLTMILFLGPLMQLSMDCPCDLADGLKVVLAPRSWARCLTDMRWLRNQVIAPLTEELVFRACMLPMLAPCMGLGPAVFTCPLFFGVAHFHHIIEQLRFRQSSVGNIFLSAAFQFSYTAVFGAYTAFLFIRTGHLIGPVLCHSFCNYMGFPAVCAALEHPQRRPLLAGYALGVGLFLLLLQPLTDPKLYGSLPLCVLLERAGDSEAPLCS

CAAX prenyl protease 1 = CAAX prenyl protease 1 (Saccharomyces cerevisiae S288c, UniProt P47154); assay: yeast CAAX protease Ste24 inhibition – biochemical, S. cerevisiae, plate reader, cherry-pick, dose response (AID 488815)
Chain of CAAX prenyl protease 1 (P47154 whole entry): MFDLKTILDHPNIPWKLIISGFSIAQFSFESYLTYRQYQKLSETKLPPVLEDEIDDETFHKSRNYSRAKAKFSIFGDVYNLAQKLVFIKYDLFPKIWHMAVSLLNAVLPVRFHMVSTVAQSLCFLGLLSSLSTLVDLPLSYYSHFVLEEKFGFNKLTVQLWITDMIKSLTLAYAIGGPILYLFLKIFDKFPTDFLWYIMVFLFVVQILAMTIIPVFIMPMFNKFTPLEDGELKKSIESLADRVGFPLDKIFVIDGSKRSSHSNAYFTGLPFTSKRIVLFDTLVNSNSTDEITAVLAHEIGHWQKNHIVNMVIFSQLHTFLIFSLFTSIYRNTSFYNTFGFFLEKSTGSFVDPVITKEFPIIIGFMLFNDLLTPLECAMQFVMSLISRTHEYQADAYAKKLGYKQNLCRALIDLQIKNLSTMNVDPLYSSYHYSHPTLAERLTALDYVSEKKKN

[5] = target: T2, Dual specificity protein phosphatase 6 (Rattus norvegicus, UniProt Q64346)
T2 sequence (Q64346 whole entry): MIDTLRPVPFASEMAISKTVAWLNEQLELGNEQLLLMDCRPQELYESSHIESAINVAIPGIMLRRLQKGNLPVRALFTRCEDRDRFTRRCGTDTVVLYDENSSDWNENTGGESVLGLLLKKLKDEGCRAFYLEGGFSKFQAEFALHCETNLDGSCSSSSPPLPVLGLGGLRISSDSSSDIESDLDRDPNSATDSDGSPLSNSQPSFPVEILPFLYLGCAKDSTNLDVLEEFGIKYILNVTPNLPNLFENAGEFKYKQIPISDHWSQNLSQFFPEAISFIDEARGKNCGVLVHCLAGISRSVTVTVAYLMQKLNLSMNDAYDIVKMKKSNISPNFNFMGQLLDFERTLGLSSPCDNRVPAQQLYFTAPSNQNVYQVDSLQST

[6] = target: T3, Tyrosine-protein phosphatase non-receptor type 7 (Homo sapiens, UniProt P35236); format: functional
T3 sequence (P35236 whole entry): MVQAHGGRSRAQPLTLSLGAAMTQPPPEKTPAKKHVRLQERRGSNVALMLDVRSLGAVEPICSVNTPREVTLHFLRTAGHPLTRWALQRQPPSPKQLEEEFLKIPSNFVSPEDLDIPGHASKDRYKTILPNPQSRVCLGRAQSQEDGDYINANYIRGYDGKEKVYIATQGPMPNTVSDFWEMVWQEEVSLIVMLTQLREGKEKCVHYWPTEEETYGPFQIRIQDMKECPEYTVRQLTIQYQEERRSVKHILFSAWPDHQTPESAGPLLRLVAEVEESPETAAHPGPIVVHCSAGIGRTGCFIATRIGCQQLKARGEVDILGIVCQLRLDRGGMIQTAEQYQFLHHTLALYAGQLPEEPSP

[7] = target: Glyceraldehyde-3-phosphate dehydrogenase (Homo sapiens, UniProt P04406)
Chain of Glyceraldehyde-3-phosphate dehydrogenase (P04406 whole entry): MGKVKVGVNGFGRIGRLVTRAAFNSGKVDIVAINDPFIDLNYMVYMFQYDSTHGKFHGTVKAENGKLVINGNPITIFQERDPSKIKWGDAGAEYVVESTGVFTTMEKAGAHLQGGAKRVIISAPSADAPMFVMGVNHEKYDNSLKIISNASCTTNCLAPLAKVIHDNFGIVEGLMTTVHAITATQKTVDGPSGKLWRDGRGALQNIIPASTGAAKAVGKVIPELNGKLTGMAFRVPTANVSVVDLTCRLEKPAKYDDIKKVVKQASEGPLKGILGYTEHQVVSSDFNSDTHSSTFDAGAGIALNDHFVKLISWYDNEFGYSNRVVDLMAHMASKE

[8] = target: T2, Dual specificity protein phosphatase 6; format: functional
[9] = target: T4, RNA-binding protein pos-1 (Caenorhabditis elegans, UniProt G5EF15); assay: disruptors of C. elegans POS-1 RNA interaction – biochemical, fluorescence polarization, dose response (AID 1964);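 note: purified POS-1 fused to maltose binding protein made in E. coli; potency of compounds blocking POS-1 binding to fluorescent RNA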
T4 sequence (G5EF15 whole entry): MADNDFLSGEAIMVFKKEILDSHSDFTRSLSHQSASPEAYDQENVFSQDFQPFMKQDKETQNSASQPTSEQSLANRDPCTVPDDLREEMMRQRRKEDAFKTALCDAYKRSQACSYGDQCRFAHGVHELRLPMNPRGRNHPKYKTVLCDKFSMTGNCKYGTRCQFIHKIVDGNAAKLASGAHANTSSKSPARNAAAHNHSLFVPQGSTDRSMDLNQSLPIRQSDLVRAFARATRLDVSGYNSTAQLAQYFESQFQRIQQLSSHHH

[10] = target: T5, Endoribonuclease toxin MazF (Escherichia coli K-12, UniProt P0AE70); assay: activation of MazEF endoribonuclease cleavage – biochemical, fluorescence, single-stranded RNA substrate, uHTS hits, dose response (AID 588481); format: functional
T5 sequence (P0AE70 whole entry): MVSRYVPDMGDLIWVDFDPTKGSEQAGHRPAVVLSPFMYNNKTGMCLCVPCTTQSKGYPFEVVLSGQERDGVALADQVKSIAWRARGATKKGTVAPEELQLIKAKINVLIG

[11] = target: T5, Endoribonuclease toxin MazF; assay: substrate-only fluorescence increase artefacts – biochemical, single-stranded RNase substrate, counter-screen for MazEF activator project, dose response (AID 588502); format: functional
[12] = target: T6, Zinc finger protein mex-5 (Caenorhabditis elegans, UniProt Q9XUB2); assay: potency of MEX-5 RNA-binding blockers – biochemical, C. elegans, fluorescence polarization, dose response (AID 1960)
T6 sequence (Q9XUB2 whole entry): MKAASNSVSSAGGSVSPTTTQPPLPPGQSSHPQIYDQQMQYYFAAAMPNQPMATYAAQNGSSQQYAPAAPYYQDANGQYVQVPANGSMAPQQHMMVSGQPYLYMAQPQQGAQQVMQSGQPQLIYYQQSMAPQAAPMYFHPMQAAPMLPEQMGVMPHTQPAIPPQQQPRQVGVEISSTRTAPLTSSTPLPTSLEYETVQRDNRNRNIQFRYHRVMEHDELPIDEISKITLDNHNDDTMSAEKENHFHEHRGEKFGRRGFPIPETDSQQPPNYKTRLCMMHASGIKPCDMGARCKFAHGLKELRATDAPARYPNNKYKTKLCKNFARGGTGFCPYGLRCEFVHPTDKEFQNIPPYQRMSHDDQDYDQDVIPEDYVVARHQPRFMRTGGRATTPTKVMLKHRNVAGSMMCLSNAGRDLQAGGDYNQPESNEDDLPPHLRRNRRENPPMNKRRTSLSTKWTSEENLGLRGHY

[13] = target: UDP-galactopyranose mutase (Mycobacterium tuberculosis, UniProt P9WIQ1); assay: Inhibitors of Mycobacterium tuberculosis UDP-galactopyranose mutase (UGM) enzyme Measured in Biochemical System Using Plate Reader - 2105-02_Inhibitor_Dose_CherryPick_Activity. [Related pubchem assays (depositor defined):AID504439]
Chain of UDP-galactopyranose mutase (P9WIQ1 whole entry): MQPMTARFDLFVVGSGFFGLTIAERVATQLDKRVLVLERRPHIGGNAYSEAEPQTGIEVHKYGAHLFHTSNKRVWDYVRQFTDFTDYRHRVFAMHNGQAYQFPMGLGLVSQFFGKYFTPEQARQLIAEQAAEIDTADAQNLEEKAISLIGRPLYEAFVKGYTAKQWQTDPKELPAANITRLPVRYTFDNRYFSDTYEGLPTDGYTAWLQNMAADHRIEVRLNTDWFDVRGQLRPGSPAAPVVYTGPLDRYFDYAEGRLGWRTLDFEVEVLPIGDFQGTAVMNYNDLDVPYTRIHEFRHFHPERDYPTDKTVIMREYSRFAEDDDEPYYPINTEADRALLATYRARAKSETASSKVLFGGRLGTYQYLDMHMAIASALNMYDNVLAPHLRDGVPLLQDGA

[14] = target: T7, Corticotropin-releasing factor receptor 2/Corticotropin-releasing factor-binding protein (Homo sapiens, UniProt P24387+Q13324); assay: activators of CRF receptor 2 with binding protein – uHTS hits, confirmation (AID 602473); format: functional; conditions: read-out: EC50_Mean
T7 sequence (Q13324 whole entry): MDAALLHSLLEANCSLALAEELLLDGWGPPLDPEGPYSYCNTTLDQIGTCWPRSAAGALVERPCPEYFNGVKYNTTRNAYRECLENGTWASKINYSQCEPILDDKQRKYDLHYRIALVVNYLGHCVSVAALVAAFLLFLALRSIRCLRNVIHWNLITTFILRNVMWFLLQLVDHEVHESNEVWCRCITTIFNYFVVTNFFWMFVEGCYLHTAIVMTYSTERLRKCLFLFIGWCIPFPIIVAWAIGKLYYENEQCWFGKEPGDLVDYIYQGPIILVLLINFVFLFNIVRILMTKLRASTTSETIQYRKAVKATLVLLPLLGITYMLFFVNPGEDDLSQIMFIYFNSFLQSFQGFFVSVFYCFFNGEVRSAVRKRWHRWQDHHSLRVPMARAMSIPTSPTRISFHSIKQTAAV
T7 sequence (P24387 whole entry): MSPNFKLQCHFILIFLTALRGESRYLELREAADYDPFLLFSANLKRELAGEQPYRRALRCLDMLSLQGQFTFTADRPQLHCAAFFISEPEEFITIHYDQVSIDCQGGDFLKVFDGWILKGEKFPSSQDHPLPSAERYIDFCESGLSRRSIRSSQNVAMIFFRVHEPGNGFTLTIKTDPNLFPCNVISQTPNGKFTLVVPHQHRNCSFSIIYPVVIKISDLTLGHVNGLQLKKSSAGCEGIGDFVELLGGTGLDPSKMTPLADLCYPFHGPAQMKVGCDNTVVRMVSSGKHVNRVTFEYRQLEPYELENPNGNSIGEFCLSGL

Jurkat = assay: blockers of NF-kB activation in T cells – Jurkat, luciferase reporter, luminescence, B- and T-cell, dose response (AID 489004); format: functional, cell-based; conditions: Homo sapiens;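 note: NF-kB luciferase reporter Jurkat cells stimulated with PMA plus ionomycin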
[15] = HEK-293T viability loss, compound-treated – cell-based, uHTS hits, cytotoxicity control for B/T-cell NF-kB inhibitor project, dose response (AID 489019); format: functional;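 note: IC50 reflects cytotoxicity as loss of cell viability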
INS1 = assay: INS-1E survival protection against cytokine death – cell-based, luminescence, retest, dose response (AID 449756); format: functional; conditions: Rattus norvegicus;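 note: cell death triggered by IL-1 beta plus TNF-alpha plus IFN-gamma mixture; protective hits raise ATP signal compared with cytokine alone wells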
Phospholipase D1 = target: T8, Phospholipase D1 (Homo sapiens, UniProt Q13393); assay: cellular phospholipase D1 inhibition IC50 – cell-based, dose response (AID 602151); format: functional;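 note: cellular PLD1 assay in Calu-1 cells stimulated with PMA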
T8 sequence (Q13393 whole entry): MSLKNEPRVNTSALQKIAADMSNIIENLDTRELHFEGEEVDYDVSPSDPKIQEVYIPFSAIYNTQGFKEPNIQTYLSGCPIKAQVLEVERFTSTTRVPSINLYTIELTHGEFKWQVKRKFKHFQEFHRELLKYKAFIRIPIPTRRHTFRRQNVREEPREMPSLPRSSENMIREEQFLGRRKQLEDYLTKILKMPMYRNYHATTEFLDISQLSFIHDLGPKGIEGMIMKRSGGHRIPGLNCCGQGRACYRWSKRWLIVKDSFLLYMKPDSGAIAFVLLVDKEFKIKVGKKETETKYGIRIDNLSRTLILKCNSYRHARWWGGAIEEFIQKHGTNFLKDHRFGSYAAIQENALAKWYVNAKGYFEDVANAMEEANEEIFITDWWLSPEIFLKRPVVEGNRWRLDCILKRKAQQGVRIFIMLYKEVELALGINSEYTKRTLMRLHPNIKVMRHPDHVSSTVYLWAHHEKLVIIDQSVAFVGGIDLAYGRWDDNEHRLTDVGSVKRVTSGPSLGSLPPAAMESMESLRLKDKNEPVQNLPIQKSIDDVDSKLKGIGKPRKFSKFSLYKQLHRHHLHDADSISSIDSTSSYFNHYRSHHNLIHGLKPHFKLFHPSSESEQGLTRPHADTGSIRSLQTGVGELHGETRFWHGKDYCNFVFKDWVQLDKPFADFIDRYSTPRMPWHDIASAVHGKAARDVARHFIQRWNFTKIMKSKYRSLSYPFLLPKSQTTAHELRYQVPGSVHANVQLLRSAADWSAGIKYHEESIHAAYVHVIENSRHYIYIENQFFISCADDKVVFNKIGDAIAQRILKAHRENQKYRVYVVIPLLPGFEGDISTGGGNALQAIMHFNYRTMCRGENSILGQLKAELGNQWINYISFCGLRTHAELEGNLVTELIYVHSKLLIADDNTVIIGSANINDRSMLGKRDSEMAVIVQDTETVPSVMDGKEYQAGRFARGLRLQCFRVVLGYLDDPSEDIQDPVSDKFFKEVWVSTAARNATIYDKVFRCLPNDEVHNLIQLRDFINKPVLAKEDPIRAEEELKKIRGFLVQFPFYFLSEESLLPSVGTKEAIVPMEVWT

Phospholipase D2 = Phospholipase D2 (Homo sapiens, UniProt O14939); assay: cellular phospholipase D2 inhibition IC50 – cell-based, dose response (AID 602147); format: functional;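 note: cellular assay in HEK293 cells overexpressing GFP-tagged PLD2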
Chain of Phospholipase D2 (O14939 whole entry): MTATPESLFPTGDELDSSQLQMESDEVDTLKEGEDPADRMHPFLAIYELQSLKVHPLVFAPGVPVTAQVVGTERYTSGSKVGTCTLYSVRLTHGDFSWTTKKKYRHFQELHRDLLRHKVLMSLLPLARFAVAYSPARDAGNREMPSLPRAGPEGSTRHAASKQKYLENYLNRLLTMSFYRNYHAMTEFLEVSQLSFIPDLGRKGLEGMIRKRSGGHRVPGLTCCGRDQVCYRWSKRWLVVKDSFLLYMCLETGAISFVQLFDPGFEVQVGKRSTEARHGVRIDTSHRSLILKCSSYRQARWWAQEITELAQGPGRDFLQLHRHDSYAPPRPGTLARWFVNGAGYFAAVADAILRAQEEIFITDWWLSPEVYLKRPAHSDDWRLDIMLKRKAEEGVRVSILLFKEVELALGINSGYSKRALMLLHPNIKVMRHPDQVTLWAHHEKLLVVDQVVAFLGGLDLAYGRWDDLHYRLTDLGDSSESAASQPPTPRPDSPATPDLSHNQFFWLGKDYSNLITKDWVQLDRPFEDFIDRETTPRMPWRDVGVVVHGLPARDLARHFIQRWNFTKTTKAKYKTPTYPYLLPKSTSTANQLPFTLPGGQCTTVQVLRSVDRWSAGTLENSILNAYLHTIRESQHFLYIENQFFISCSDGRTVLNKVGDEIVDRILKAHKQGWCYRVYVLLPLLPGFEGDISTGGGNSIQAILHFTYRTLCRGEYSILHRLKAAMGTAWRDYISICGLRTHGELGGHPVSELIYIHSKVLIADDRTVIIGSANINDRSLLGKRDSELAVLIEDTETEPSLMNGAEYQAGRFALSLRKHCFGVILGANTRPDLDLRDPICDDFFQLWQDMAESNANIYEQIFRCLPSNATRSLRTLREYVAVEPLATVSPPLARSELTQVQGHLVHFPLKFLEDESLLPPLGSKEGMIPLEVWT

SMILES: O=C(Nc1ccc2nn(-c3ccccc3)nc2c1)c1ccco1
- AC50 (A-375 [1]): > 35 µM (active)
- AC50 (A-375 [2]): > 35 µM (active)

SMILES: CCOC(=O)c1[nH]c2ccc(OC)cc2c1NC(=O)CN1CCC2(CC1)OCCO2
- AC50 (CAAX prenyl protease 2 [3]): 67.8 µM (active)
- AC50 (CAAX prenyl protease 2 [4]): 15.4 µM (active)
- AC50 (CAAX prenyl protease 1): 6.79 µM (active)

SMILES: Cc1ccc(-n2c(=O)[nH]c(=O)n([C@H](C(N)=O)C(C)C)c2=O)cc1
- IC50 [5]: > 100 µM (inactive)
- IC50 [6]: > 100 µM (not active)
- IC50 [7]: > 100 µM (not active)
- IC50 [8]: > 100 µM (inactive)

SMILES: O=C(Nc1ccc(Cl)cc1)OCc1ccccn1
- AC50 (A-375 [1]): > 35 µM (active)
- AC50 (A-375 [2]): > 35 µM (active)

SMILES: COc1ccc2nc3ccccc3nc2c1NC(=O)c1ccc(Cl)cc1Cl
- EC50 [9]: 3.15 µM (inconclusive)
- EC50 [10]: > 99 µM (inactive)
- EC50 [11]: 27.6 µM (inactive)
- EC50 [12]: 3.71 µM (inconclusive)
- AC50 [13]: 171 µM (active)
- EC50 [14]: 6.99 µM (active)

SMILES: Cc1cc(Cl)c(S(=O)(=O)N2CCN(c3ccc(F)cc3)CC2)cc1OCC(=O)NC1CCCCC1
- IC50 (Jurkat): > 80 µM (inactive)
- IC50 [15]: > 80 µM (inactive)
- AC50 (INS1): 4.82 µM (active)

SMILES: O=S(=O)(O)c1cc2oc(-c3ccccc3)nc2c2ccccc12
- AC50 (CAAX prenyl protease 2 [4]): 1.35 µM (active)

SMILES: C[C@@H](CN1CCC(n2c(=O)[nH]c3ccccc32)CC1)NC(=O)c1ccc(Cl)c(Cl)c1
- IC50 (Phospholipase D1): 0.023 µM (active)
- IC50 (Phospholipase D2): 0.428 µM (active)

SMILES: O=C(NCCN1CCC2(CC1)C(=O)NCN2c1ccccc1)c1cccc(F)n1
- IC50 (Phospholipase D1): 12 µM (active)
- IC50 (Phospholipase D2): 4.46 µM (active)

Source: ChEMBL document CHEMBL1201862, “PubChem BioAssay data set” (2004)
